Several values for one entry are separate records, joined by “and”; a condition that tells them apart may be missing. Equal values may be shown once. Activity calls are given as the source filed them.
Tests used:
Nonstructural protein 1 = Nonstructural protein 1 (Influenza A virus, UniProt Q194T2); format: functional, Influenza A virus (A/California/07/2009(H1N1))
HEK293 [1] = test: optical interference in Abeta FP readout, dose response, artefact control for IDE activator project, biochemical, fluorescence polarization (AID 588442); format: functional, cell-based; settings: Homo sapiens
HEK293 [2] = test: HEK cell cytotoxicity by LDH release, dose response, cytotoxicity control for IDE activator project, fluorescence, HEK cells (AID 588440); format: functional, cell-based; settings: Homo sapiens;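 note: cytotoxicity by LDH release measuring loss of membrane integrity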
Insulin-degrading enzyme [3] = biological target: T1, Insulin-degrading enzyme (Homo sapiens, UniProt P14735); test: activators of endogenous IDE in HEK cells, dose response, cell-based, fluorescence polarization (AID 588439); format: functional
T1 sequence (P14735 whole entry): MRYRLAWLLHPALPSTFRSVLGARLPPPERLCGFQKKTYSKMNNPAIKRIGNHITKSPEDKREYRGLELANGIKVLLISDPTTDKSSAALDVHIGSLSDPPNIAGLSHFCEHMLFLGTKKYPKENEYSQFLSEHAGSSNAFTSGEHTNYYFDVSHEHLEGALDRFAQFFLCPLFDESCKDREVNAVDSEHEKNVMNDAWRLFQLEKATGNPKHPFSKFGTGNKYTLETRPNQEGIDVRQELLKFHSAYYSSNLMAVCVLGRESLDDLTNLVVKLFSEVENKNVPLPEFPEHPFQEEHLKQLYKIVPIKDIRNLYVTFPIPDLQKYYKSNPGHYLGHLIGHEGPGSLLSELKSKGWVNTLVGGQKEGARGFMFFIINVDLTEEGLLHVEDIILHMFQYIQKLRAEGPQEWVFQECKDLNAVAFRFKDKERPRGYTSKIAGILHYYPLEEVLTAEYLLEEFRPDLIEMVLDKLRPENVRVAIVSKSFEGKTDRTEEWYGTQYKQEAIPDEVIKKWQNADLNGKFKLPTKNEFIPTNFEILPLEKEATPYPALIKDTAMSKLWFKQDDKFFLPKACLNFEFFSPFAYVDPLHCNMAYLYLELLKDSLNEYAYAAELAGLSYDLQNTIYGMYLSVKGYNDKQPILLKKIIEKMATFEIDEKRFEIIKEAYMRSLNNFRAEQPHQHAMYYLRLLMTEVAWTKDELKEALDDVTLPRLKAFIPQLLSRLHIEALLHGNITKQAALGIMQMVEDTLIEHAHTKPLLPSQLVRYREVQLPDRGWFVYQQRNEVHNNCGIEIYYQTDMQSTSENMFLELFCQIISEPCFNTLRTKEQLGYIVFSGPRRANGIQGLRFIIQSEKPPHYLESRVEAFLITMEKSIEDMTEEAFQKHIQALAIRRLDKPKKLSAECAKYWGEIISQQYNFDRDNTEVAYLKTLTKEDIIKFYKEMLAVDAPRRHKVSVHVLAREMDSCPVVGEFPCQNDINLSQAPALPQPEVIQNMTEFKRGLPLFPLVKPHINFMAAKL

[4] = biological target: Glutathione-S-transferase (Schistosoma japonicum, UniProt Q26513); test: biotin-GST/anti-GST TR-FRET signal inhibitors, dose response, artefact control for Vif-APOBEC3G degradation inhibitor project, biochemical (AID 1117362); format: functional
Sequence of Glutathione-S-transferase (Q26513 whole entry): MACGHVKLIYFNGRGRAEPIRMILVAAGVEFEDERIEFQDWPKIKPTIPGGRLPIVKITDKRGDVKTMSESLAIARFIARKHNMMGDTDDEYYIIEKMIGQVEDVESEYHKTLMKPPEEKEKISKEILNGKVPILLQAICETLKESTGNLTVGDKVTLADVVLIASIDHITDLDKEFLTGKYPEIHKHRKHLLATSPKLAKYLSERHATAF

[5] = biological target: Ras and Rab interactor 1/Tyrosine-protein kinase ABL1 (Homo sapiens, UniProt P00519+Q13671); format: functional;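 note: biochemical TR-FRET dose-response test measuring inhibition of binding between Rin1 and Abl proteins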
Sequence of Ras and Rab interactor 1/Tyrosine-protein kinase ABL1 (P00519 whole entry): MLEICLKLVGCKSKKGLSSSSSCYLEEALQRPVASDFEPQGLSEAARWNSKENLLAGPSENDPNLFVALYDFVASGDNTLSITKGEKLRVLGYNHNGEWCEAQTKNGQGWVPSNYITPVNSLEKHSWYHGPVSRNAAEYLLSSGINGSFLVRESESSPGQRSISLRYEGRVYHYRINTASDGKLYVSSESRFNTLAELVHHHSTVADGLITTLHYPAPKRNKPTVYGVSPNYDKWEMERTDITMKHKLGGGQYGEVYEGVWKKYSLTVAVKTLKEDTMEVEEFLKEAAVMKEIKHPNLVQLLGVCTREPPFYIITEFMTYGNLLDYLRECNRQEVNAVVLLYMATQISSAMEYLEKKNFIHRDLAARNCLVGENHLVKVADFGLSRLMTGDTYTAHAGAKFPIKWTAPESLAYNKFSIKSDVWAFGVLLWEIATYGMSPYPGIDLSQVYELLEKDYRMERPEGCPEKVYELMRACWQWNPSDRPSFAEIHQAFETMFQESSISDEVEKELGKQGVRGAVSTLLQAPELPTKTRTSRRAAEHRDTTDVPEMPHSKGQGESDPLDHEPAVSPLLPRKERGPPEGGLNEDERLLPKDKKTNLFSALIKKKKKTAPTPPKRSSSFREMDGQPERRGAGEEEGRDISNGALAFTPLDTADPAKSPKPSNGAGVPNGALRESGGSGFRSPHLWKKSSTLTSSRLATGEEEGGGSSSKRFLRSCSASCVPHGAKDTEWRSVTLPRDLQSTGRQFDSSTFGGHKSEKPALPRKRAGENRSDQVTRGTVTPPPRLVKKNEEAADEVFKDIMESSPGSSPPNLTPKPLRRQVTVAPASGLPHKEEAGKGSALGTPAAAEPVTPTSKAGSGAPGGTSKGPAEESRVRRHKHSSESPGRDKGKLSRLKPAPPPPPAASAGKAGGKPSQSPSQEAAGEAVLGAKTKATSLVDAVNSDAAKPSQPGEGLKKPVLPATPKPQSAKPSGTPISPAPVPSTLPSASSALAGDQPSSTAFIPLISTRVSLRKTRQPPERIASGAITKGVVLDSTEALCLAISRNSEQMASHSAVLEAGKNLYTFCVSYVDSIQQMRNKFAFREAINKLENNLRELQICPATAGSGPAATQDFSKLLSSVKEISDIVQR
Sequence of Ras and Rab interactor 1/Tyrosine-protein kinase ABL1 (Q13671 whole entry): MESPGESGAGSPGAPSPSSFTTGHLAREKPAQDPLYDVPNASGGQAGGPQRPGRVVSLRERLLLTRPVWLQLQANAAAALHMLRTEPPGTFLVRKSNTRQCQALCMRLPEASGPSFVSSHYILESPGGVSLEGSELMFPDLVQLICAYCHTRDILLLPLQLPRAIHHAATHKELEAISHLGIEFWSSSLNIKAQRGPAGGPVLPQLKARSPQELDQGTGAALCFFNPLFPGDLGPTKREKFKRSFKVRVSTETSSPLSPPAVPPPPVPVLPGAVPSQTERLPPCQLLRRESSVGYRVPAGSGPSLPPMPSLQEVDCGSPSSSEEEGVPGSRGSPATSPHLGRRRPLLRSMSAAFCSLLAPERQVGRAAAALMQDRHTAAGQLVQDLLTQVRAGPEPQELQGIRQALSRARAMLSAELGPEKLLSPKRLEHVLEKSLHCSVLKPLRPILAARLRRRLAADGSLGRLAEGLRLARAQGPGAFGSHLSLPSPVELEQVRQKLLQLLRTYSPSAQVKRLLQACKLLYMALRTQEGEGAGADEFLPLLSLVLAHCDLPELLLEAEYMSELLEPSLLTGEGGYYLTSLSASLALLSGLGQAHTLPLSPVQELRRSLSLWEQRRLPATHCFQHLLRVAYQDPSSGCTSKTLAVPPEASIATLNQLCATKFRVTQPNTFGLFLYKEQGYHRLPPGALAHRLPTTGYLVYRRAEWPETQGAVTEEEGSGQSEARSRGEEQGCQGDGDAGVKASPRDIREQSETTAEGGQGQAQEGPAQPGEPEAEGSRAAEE

Insulin-degrading enzyme [6] = biological target: T1, Insulin-degrading enzyme; test: activators of recombinant IDE enzyme, dose response, counter-screen for IDE activator project, biochemical, fluorescence polarization (AID 588681)
[7] = T. cruzi growth inhibition in host cells, dose response, cell-based, plate reader, dry powder, set 2 (AID 652275); format: functional
[8] = growth inhibition of intracellular T. cruzi, dose response, cell-based, plate reader, dry powder samples (AID 651845); format: functional
[9] = T. cruzi intracellular amastigote growth inhibition, dose response, imaging, CA-I/72 strain, bovine embryo skeletal muscle, dry powder (AID 651885); format: functional, cell-based
[10] = ZM109 Env clade C HIV-1 fusion inhibitors, dose response, HeLa effector, CEM target cells, luciferase, cherry-pick (AID 652058); format: functional, cell-based
[11] = inhibitors of HIV Env-driven cell fusion, dose response, cherry-pick (AID 652057); format: functional, cell-based
[12] = HIV Env cell-cell fusion inhibitors, dose response, HIV entry, plate reader, dry powder (AID 687023); format: functional, cell-based
[13] = HeLa cell cytotoxicity, dose response, cytotoxicity control, CellTiter-Glo luminescence, dry powder, set 2 (AID 720593); format: functional, cell-based
[14] = HEK293T cell cytotoxicity, dose response, cytotoxicity control, CellTiter-Glo luminescence, dry powder, set 2 (AID 720595); format: functional, cell-based; settings: HEK293
[15] = biological target: T2, Low molecular weight phosphotyrosine protein phosphatase (Homo sapiens, UniProt P24666); test: LMPTP phosphatase inhibitors, dose response, biochemical, OMFP substrate, fluorescence intensity, set 2 (AID 743307); format: functional
T2 sequence (P24666 whole entry): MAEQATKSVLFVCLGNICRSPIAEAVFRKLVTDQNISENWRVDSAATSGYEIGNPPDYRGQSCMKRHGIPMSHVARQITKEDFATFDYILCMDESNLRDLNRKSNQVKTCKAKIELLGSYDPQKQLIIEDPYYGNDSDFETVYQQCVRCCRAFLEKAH

[16] = biological target: T2, Low molecular weight phosphotyrosine protein phosphatase; test: LMPTP phosphatase inhibitors, colorimetric pNPP readout, dose response, orthogonal assay, biochemical, absorbance, pNPP substrate, LMPTP-A isoform, set 2 (AID 743308); format: functional
Transthyretin = Transthyretin (Homo sapiens, UniProt P02766); test: Luminescence-based cell-based high throughput dose response assay to identify activators of Transthyretin (TTR) transcription.; format: functional
[17] = cytotoxicity toward Colo320 cells – cell-based, CellTiter-Glo luminescence, IC50, dose response (AID 1117334); format: functional; settings: COLO 320
[18] = HCT116 cell viability decrease, GSK3B pretreatment – CellTiter-Glo, IC50, dose response (AID 1117339); format: functional; settings: HCT-116
[19] = cytotoxicity toward HT-29 cells – cell-based, CellTiter-Glo luminescence, IC50, dose response (AID 1117330); format: functional
[20] = CellTiter-Glo luminescent dose response of DLD-1 viability loss (AID 1117352); format: functional
[21] = RKO cell viability reduction, dose response, CellTiter-Glo luminescence (AID 1117322); format: functional
[22] = SNU-C1 cell viability reduction, dose response, CellTiter-Glo luminescence (AID 1117323); format: functional, cell-based
[23] = cytotoxicity toward HCT116 cells – cell-based, CellTiter-Glo luminescence, IC50, dose response (AID 1117332); format: functional; settings: HCT-116
[24] = Concentration-dependent survival of SW480 colon cancer line, luminescence detection with CellTiter-Glo, half-maximal inhibitory concentration (AID 1117338); format: functional
[25] = IOSE-T80 ovarian epithelial cell cytotoxicity, dose response, cytotoxicity control for PAX8 inhibitor project, plate reader, dry powder samples (AID 743045); format: functional, cell-based
[26] = PAX2 cell-based inhibition, dose response, selectivity assay for PAX8 inhibitor project, plate reader, dry powder samples (AID 743048); format: functional;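 note: HEK293 cells carrying a WT1 promoter luciferase reporter driven by expressed Pax2; potency is for inhibition of Pax2 driven reporter signal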
Paired box protein Pax-8 = Paired box protein Pax-8 (Homo sapiens, UniProt Q06710); test: inhibitors of PAX8-driven TPO luciferase reporter, dose response, RMG-I cells, cherry-pick (AID 687027); format: functional, cell-based;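 note: luciferase reporter driven by Pax8 target thyroperoxidase promoter measured by SteadyGlo luminescence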
Sequence of Paired box protein Pax-8 (Q06710 whole entry): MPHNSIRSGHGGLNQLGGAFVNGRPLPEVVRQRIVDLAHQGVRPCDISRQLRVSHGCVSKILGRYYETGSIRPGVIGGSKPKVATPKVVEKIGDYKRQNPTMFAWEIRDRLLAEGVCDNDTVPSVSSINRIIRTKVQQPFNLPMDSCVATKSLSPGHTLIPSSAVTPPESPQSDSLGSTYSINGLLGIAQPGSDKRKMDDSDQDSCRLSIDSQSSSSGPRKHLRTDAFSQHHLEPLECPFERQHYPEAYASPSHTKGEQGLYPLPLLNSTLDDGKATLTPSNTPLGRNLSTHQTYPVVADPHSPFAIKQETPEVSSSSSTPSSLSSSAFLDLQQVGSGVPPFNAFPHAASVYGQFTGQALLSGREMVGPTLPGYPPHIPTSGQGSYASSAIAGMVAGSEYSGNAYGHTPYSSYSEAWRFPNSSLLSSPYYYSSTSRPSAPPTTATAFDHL

[27] = cytotoxicity dependent on PAX8, dose response, cell-based, plate reader, dry powder (AID 743049); format: functional
[28] = PAX5 activity inhibitors, dose response, selectivity assay for PAX8 inhibitor project, cell-based, plate reader, dry powder samples (AID 743047); format: functional;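 note: HEK293 cells carrying a Pax5 driven CD19 promoter luciferase reporter; potency of inhibitors that lower reporter luminescence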
[29] = IGROV1 ovarian cancer cell cytotoxicity, dose response, PAX8 inhibitor project, plate reader, dry powder samples (AID 743043); format: functional, cell-based; settings: IGROV-1
[30] = cytotoxicity in OVCAR8 ovarian cancer cells, dose response, PAX8 project, cell-based, plate reader, dry powder samples (AID 743197); format: functional; settings: OVCAR-8
[31] = cytotoxicity in OV-90 ovarian cancer cells, dose response, PAX8 inhibitor project, cell-based, plate reader, dry powder, SA8 (AID 743149); format: functional
[32] = cytotoxicity in COV434 cells, dose response, cytotoxicity control for PAX8 inhibitor project, cell-based, plate reader, dry powder, SA7 (AID 743145); format: functional
[33] = NIH:OVCAR-3 ovarian cancer cell cytotoxicity, dose response, PAX8 inhibitor project, plate reader, dry powder samples (AID 743044); format: functional, cell-based
[34] = biological target: G-protein coupled receptor 55 (Homo sapiens, UniProt Q9Y2T6); test: GPR55 antagonists blocking LPI-driven arrestin recruitment, primary screen, imaging, U2OS, beta-arrestin-GFP, LPI agonist (AID 2013); format: functional;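 note: antagonist potency measured as reduced agonist-driven arrestin aggregation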
Sequence of G-protein coupled receptor 55 (Q9Y2T6 whole entry): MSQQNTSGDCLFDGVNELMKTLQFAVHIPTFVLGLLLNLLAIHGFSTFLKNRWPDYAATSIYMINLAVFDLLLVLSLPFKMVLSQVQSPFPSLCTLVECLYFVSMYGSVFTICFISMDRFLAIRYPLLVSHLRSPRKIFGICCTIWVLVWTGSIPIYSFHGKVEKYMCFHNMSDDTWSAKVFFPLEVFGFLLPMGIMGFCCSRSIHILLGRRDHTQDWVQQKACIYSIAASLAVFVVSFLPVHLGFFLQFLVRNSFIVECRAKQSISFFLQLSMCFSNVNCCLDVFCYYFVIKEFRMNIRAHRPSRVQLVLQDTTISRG

Large T antigen = Large T antigen (Simian virus 40, UniProt P03070); format: functional, Betapolyomavirus macacae;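 note: Confirmatory-stage PubChem screen for compounds that inhibit SV40 T antigen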
Sequence of Large T antigen (P03070 whole entry): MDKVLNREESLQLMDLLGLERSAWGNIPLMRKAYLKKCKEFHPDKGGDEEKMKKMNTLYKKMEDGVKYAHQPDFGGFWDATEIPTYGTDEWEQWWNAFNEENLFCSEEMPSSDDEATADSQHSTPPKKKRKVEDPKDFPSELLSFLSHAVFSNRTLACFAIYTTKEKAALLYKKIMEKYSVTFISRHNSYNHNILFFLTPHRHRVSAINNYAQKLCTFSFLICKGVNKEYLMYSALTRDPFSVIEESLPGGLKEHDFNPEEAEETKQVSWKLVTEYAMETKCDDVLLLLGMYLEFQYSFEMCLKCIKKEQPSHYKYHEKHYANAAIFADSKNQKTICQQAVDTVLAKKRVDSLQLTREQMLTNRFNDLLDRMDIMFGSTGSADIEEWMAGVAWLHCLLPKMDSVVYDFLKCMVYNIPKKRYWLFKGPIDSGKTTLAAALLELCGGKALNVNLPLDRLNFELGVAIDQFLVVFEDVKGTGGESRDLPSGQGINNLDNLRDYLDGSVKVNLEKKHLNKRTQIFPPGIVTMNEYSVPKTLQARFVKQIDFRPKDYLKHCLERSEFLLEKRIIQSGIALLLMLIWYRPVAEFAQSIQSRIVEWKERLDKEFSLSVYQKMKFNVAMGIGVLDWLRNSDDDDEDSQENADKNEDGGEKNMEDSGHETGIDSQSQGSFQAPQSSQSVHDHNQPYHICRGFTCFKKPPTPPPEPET

[35] = biological target: E3 ubiquitin-protein ligase Mdm2 (Homo sapiens, UniProt Q00987); test: enhancers of MDM2-luciferase reporter signal, concentration-effect titration, project on inhibitors of MDM2 ubiquitin ligase, cellular assay, luminescent readout, 384-well plate format (AID 1394); format: functional;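 note: MDM2 E3 inhibitors raise luminescence so EC50 is for signal enhancement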
Sequence of E3 ubiquitin-protein ligase Mdm2 (Q00987 whole entry): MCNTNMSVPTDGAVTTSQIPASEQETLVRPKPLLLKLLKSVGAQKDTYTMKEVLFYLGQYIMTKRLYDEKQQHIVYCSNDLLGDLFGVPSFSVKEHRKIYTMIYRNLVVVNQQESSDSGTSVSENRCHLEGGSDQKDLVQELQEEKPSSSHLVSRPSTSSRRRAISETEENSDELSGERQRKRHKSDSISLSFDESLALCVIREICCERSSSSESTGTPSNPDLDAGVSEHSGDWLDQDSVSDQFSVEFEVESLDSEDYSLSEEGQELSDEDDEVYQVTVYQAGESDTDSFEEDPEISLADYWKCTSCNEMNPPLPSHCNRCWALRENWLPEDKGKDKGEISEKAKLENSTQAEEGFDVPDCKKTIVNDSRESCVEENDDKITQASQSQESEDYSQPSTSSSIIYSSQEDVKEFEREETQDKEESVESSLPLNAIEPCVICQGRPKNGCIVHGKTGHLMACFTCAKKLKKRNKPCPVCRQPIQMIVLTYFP

Vero = Vero cell cytotoxicity, cytotoxicity control for flavivirus capping enzyme inhibitors (AID 588742); format: functional; settings: Chlorocebus sabaeus
[36] = biological target: T3, Mannose-6-phosphate isomerase (Homo sapiens, UniProt P34949); test: human PMI inhibitors, high substrate, primary screen, biochemical, fluorescence intensity, high mannose 6-phosphate (AID 1220)
T3 sequence (P34949 whole entry): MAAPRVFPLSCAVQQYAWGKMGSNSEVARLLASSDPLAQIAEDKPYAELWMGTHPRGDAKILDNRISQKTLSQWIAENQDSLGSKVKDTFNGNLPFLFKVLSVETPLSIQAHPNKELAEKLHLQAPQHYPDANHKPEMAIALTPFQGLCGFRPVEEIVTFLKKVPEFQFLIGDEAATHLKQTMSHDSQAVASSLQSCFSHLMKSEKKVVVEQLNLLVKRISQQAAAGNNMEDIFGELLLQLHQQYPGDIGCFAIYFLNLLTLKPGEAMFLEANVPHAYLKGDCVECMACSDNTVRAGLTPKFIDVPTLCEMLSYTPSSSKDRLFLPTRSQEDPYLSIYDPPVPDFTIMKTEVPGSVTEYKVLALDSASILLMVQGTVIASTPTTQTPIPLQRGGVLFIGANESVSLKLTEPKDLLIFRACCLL

[37] = inhibitors of Vif binding to APOBEC3G peptide, primary screen, biochemical, TR-FRET, GST-Vif 1-94, biotin-A3G peptide, dose response retest (AID 1117319); format: functional;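 note: TR-FRET signal of purified GST-Vif binding a biotinylated A3G peptide; inhibitors lower the FRET signal by blocking Vif and A3G binding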
[38] = cytotoxicity in HepG2 cells, dose response, cytotoxicity control, cell-based, plate reader, dry powder (AID 651947); format: functional

Sequence of Nonstructural protein 1 (Q194T2 whole entry): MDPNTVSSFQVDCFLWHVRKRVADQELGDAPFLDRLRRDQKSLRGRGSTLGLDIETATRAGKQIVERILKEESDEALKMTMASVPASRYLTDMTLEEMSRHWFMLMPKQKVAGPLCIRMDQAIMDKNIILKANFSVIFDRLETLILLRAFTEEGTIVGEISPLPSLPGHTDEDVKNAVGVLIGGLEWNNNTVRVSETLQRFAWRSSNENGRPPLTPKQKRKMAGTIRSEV

Structure (SMILES): O=C(O)CCCC[C@@H]1SC[C@@H]2NC(=O)N[C@@H]21 [BIOTIN]
- IC50 (Nonstructural protein 1): < 200 nM (active)
- EC50 (HEK293 [1]): 2.06 µM (active)
- IC50 (HEK293 [2]): > 89.3 µM (inactive)
- EC50 (Insulin-degrading enzyme [3]): 2.37 µM (active)
- IC50 [4]: 850 nM (active)
- IC50 [5]: > 3.73 nM (active) and 529 nM (active)
- EC50 (Insulin-degrading enzyme [6]): 2.53 µM (active)

Structure (SMILES): CC(C)N1C[C@@H](C)[C@H](CN(C)Cc2ccc(Oc3ccccc3)cc2)Oc2c(cccc2N(C)C(=O)c2ccncc2)C1=O
- AC50 [7]: 262 nM (active)
- AC50 [8]: 262 nM (active)
- IC50 [9]: 10 µM (inconclusive)

Structure (SMILES): Cc1noc(C)c1S(=O)(=O)Nc1cccc2c1O[C@H](CN(C)Cc1ccc(C(F)(F)F)cc1)[C@H](C)CN([C@H](C)CO)C2=O
- AC50 [10]: 935 nM (active)
- AC50 [11]: 731 nM (active)
- AC50 [12]: 2.42 µM (active)

Structure (SMILES): O=C(Cc1ccccc1)NC(c1ccco1)c1ccc2cccnc2c1O (stereo not drawn)
- AC50 [13]: 18.1 µM (active)
- AC50 [14]: 2.56 µM (active)

Structure (SMILES): c1ccc(-c2nc(N3CCOCC3)c3ccccc3n2)cc1
- IC50 [15]: > 80 µM (inactive)
- IC50 [16]: > 80 µM (inactive)

Structure (SMILES): Cc1ccc([C@H]2C[C@@H](O)[C@H](n3cc(-c4ccc(F)cc4)nn3)CN2C(=O)c2cccs2)cc1
- EC50 (Transthyretin): > 167 µM (inactive)

Structure (SMILES): CC(C)(CO)[C@@H](O)C(=O)NCCC(=O)NCCSSCCNC(=O)CCNC(=O)[C@H](O)C(C)(C)CO
- IC50 [17]: > 20 µM (inactive)
- IC50 [18]: > 20 µM (inactive)
- IC50 [19]: > 20 µM (inactive)
- IC50 [20]: > 20 µM (inactive)
- IC50 [21]: > 20 µM (inactive)
- IC50 [22]: > 20 µM (inactive)
- IC50 [23]: > 20 µM (inactive)
- IC50 [24]: > 20 µM (inactive)

Structure (SMILES): O=C(C[C@@H]1C[C@H]2c3cc(NS(=O)(=O)c4ccc(F)cc4)ccc3O[C@H]2[C@H](CO)O1)NCc1ccc(Cl)cc1
- AC50 [25]: 19.8 µM (active)
- AC50 [26]: 34.3 µM (active)
- AC50 (Paired box protein Pax-8): 5.93 µM (active)
- AC50 [27]: 45.7 µM (active)
- AC50 [28]: 28.1 µM (active)
- AC50 [29]: 43 µM (active)
- AC50 [30]: 25.8 µM (active)
- AC50 [31]: 19.1 µM (active)
- AC50 [32]: 0.676 nM (active)
- AC50 [33]: 16.1 µM (active)

Structure (SMILES): CC1=NN(c2cccc(C(=O)O)c2)C(=O)/C1=C\C=C/c1ccccc1
- IC50 [34]: 3.3 µM (active)
- IC50 (Large T antigen): 20.4 µM (active)
- EC50 [35]: 4.82 µM (active)

Structure (SMILES): CCc1cccc(C)c1N=C(S)NCC1CCN(c2ccc(OC)cc2)C1 (stereo not drawn)
- CC50 (Vero): > 40 µM (active)
- IC50 [36]: > 50 µM (not active)

Structure (SMILES): CC(C)(C)CN1CCNC(=O)C1CC(=O)NCCc1ccccc1C(F)(F)F (stereo not drawn)
- IC50 [37]: > 100 µM (active)

Structure (SMILES): FC(F)(F)c1ccccc1CSc1nnc(-c2ccccc2)o1
- AC50 [38]: 23.1 µM (active)

— ChEMBL document CHEMBL1201862, “PubChem BioAssay data set” (2004)
